Test results taken from the METLIN SMRT retention time set (Domingo-Almenara et al. 2019).

Test: gradient 5% acetonitrile 3 min, to 50% in 2 min, to 85% in 15 min, held 3 min, 100 µL/min
Details: column: Zorbax Extend-C18 2.1 x 50 mm; eluents: water / acetonitrile, 0.1% formic acid
Outline: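 In both positive and negative ionization mode, a quadrupole time-of-flight mass spectrometer coupled to HPLC analyzed pure standards run in mixtures of ~100 molecules. The Zorbax Extend-C18 column (2.1 × 50 mm, 1.8 μm) was operated at 100 μL/min with water and acetonitrile, each containing 0.1% formic acid. The dead volume was 40 μL and the dwell volume 900 μL. Retention time came from adduct peaks that were computationally picked and individually inspected by hand.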

| SMILES | RP-LC retention time |
| --- | --- |
| Cn1nc(C(=O)N2CCCCC2)c2c1CCN(C(=O)CCC(=O)N1CCC(N3CCCCC3)CC1)C2 | 586 s |
| O=C(NCc1ccccc1F)c1ccc2c(c1)CN(CC1=Cc3ccccc3OC1)CCO2 | 755 s |
| Cc1cccc(N2CCN(S(=O)(=O)c3ccc4c(c3)CCCC(=O)N4)CC2)c1C | 983 s |
| CC1CCN(C(=O)C2=CN(c3cc(F)cc(F)c3)c3ccccc3S2(=O)=O)CC1 | 945 s |
| Cc1ccc(-c2nc3cnccn3c2Nc2ccccc2C)cc1 | 969 s |
| O=C(CCS(=O)(=O)c1ccc(Cl)cc1)Nc1nccs1 | 679 s |
| Cc1ccnc(N2CCCC(C(=O)NCc3ccc(C)o3)C2)n1 (stereo not drawn) | 694 s |
| O=C(Nc1cc(-c2ccccn2)no1)c1ccc(Br)cc1 | 868 s |
| COc1ccc(OC)c(CNC(=O)C2CCCN(c3nnc4c(Cl)cccn34)C2)c1 (stereo not drawn) | 722 s |
| O=C(NCc1ccc(Cl)cc1)c1nc(-c2ccncc2)cs1 | 687 s |
| CC(=O)NC(C)c1nc(-c2ccccc2Cl)no1 (stereo not drawn) | 687 s |
| COc1ccc(C(O)CN2CCN(c3ccc(F)cc3)CC2)cc1OC (stereo not drawn) | 636 s |
| COc1ccc(Cl)cc1S(=O)(=O)NC1CCc2nn(C)c(=O)n2CC1 (stereo not drawn) | 677 s |
| CC1CCN(c2cc3c(cc2NC(=O)c2ccco2)n(C)c(=O)c(=O)n3C)CC1 | 632 s |
| O=C(NCc1ccncc1)C1CC(=O)N(CCc2c[nH]c3ccc(F)cc23)C1 (stereo not drawn) | 588 s |
| COc1ccc(N2CCN(C(=O)COc3nccc(C)n3)CC2)cc1 | 617 s |
| CCc1cccc(NC(=O)C2CCCN(c3nnc4ccccn34)C2)c1 (stereo not drawn) | 734 s |
| O=C(c1ccncc1)N1CCC(c2noc(-c3cnccn3)n2)C1 (stereo not drawn) | 584 s |
| CS(=O)(=O)N1CCC(OC2CCN(C(=O)NCc3cccc(F)c3)CC2)CC1 | 730 s |
| Cc1cc(=O)n(CC(=O)Nc2ccc(Br)cc2)c(N2CCCCC2)n1 | 716 s |
| CCOC(=O)c1cc([N+](=O)[O-])sc1NC(=O)c1nc2ccccc2s1 | 1270 s |
| COC(=O)Nc1nc(CC(=O)NCc2ccccc2Cl)cs1 | 667 s |
| CCOc1ccc(NC(=O)Cn2nc3c(Oc4ccccc4)nccn3c2=O)cc1 | 822 s |

| SMILES | RP-LC retention time |
| --- | --- |
| COc1ccccc1CNC(=O)Cn1nc2c(N3CCSCC3)nccn2c1=O | 767 s |
| Cc1cnc(C2CC2)n1C1CCCN(S(=O)(=O)Cc2ccccc2)C1 (stereo not drawn) | 637 s |
| CCN1C(=O)CN(C(=O)c2ccoc2)CC12CCOCC2 | 609 s |
| O=C(Cc1cccn1-c1ccccc1)NCc1cc(F)ccc1F | 936 s |
| O=C(NC1CCCCCCC1)C1CCCN(C(=O)c2cc(-c3cccnc3)n[nH]2)C1 (stereo not drawn) | 631 s |
| Cc1cc(C(=O)NCCc2ccc(Cl)cc2)c2c(=O)n(C)c(=O)n(C)c2n1 | 835 s |
| Cn1cc(C2=CCN(S(=O)(=O)c3ccccc3)CC2)c2cccnc21 | 927 s |
| CCc1ccccc1NC(=O)CSc1nnc2c3cc(-c4ccc(C)cc4)nn3ccn12 | 989 s |
| CCN(CC)C(=O)c1ccc2oc(CN3CCN(C(=O)NC4CCCC4)CC3)nc2c1 | 630 s |
| Cc1ccc(Nc2cc(N3CCC(C(=O)N4CCC5(CC4)OCCO5)CC3)ncn2)cc1 | 645 s |
| Cc1nc(-c2noc(-c3ccccc3)n2)cn1CC(=O)NCc1ccc(F)c(Cl)c1 | 866 s |
| CCc1nc(-c2ccc(C(=O)NC)cc2)no1 | 690 s |
| Cc1nc(C2CCOCC2)n(C2CCN(S(=O)(=O)c3ccc(F)cc3F)C2)n1 (stereo not drawn) | 712 s |
| CCC(C)NC(=O)C1CCCN(C(=O)c2[nH]c(C)c(C(=O)OC(C)C)c2C)C1 (stereo not drawn) | 774 s |
| Cc1ccc(CN2CCN(CC(=O)N3CCC4(CC3)OCCO4)C(=O)C2=O)cc1 | 653 s |
| Cn1c(=O)c2cc(C(=O)Nc3ccccc3Cl)cnc2n(-c2ccccc2)c1=O | 882 s |
| O=C1NCCCCCN(C(=O)Nc2ccccc2)[C@H]2CCCC[C@@H]12 | 577 s |
| CCOC(=O)c1noc2nc(C)nc(NCc3ccc(OC)cc3)c12 | 1010 s |
| COc1ccc2[nH]cc(CCNC(=O)CC3CCN(S(=O)(=O)c4ccc(Cl)s4)CC3)c2c1 | 905 s |
| Cc1ccn2c(NC(=O)c3ccc(F)cc3)c(-c3ccc(F)cc3)nc2c1 | 672 s |
| Cc1[nH]nc2ccc(-c3cncc(OC[C@@H](N)Cc4ccccc4)c3)cc12 | 624 s |
| CCOCCCNC(=O)CC1CCN(C(=O)c2[nH]c(C)cc2C)CC1 | 661 s |
| CCOC(=O)CNC(=O)N1CCCC1c1ccc(OC)cc1 (stereo not drawn) | 728 s |

| SMILES | RP-LC retention time |
| --- | --- |
| CN1C(=O)c2cc(C(=O)NCc3ccccc3Cl)nn2CC1(C)C(=O)NCc1ccccc1 (stereo not drawn) | 789 s |
| COCCCNC(=O)C1c2cc(OC)c(OC)cc2C(=O)N(C)C1c1ccc(OC)cc1 (stereo not drawn) | 685 s |
| O=C(c1ccc([N+](=O)[O-])cc1)N(C(=O)N1CCCCC1)c1cccc(Cl)c1 | 953 s |
| CC(=O)NCc1nc(-c2ccc3oc(-c4ccccc4)nc3c2)no1 | 805 s |
| O=C1CC(NC(=O)Nc2ccccc2C(F)(F)F)CN1 (stereo not drawn) | 595 s |
| COc1ccc(C)cc1NC(=O)NC1CCN(c2ccc(F)c(C)c2)C1=O (stereo not drawn) | 914 s |
| CN(Cc1ccc(OC(F)(F)F)cc1)C1CCc2nnc(C3CCOCC3)n2CC1 (stereo not drawn) | 616 s |
| CCc1cccc(C)c1NC(=O)C1CCN(S(C)(=O)=O)c2cc(C)ccc2O1 (stereo not drawn) | 671 s |
| Cc1ccc(NC(=O)C2(C)Oc3cccnc3NC2=O)cc1F (stereo not drawn) | 755 s |
| CC(=O)N[C@@H]1CCN(Cc2ccccc2C(F)(F)F)C[C@@H]1CO | 574 s |
| O=C(Nc1ccc(Cl)cc1)N1CCc2nc(-c3ccc(Cl)cc3)ncc2C1 | 1130 s |
| CN(C)CCNC(=O)C1CCCN(c2ncnc3c2nc2n3CCCCC2)C1 (stereo not drawn) | 573 s |
| CC(C)OCCCNC(=O)CCc1c(-c2ccc(F)cc2)nc2ccccn12 | 622 s |
| C=CCn1c(=O)c2ccccc2n(Cc2nc(-c3ccccc3Cl)no2)c1=O | 1020 s |
| O=C(CN1C(=O)CCCc2cc(S(=O)(=O)N3CCCCC3)ccc21)NCc1ccccc1Cl | 909 s |
| CCOC(=O)c1noc2nc(C)nc(NCCc3ccc(OCC)cc3)c12 | 1170 s |
| Cc1ccc2ccc3ccc(C)nc3c2n1 | 589 s |
| COC(=O)C1CCN([C@H]2CS(=O)(=O)C[C@@H]2S(=O)(=O)c2ccc(Cl)cc2)CC1 | 856 s |
| Cc1ccc(S(=O)(=O)n2ccn(C(=O)C(C)Oc3ccccc3)c2=O)cc1 (stereo not drawn) | 712 s |
| O=C(NC1CCCC1)NC1CCN(C(=O)C2CC2)C1 (stereo not drawn) | 631 s |
| Cc1ccc2[nH]c(=O)c(CCC(=O)NCCCN3CCCC3=O)cc2c1 | 608 s |
| Cc1cccc(NC(=O)Cn2nc3n(c2=O)CCCC3)c1C | 632 s |
